Our source for the TGI values is PubChem BioAssay (NCI).

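Tested at 5 concentrations; 48 h exposure; 96-well plates; endpoints linearly interpolated, else capped at highest concentration. TGI is the concentration that stops growth completely.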

In one assay the test system is SNB-19 CNS. Briefly: NCI anticancer screen, dose series, 48 h.
`CC(=O)OC1O[C@@H](C(C)(C)O)CC[C@@H]1[C@H]1CC[C@@]2(C)C3=C(CC[C@]12C)[C@@]1(C)C[C@@H](OC(=O)CC(C)(O)CC(=O)O)[C@H](OC(C)=O)C(C)(C)C1CC3` (stereo partly specified) yielded a TGI of 34.6 µM.

For `O=C1NN=C2C=C(c3ccc(Cl)cc3)CC(c3cccc(Cl)c3)C12` (stereo unspecified), the TGI is 36.1 µM.

Another assay has as its system MCF7 breast. Briefly: NCI anticancer screen, dose series, 48 h.
`COC(=O)C1(OC(=O)Sc2ccccc2)CCN(C)CC1` came in with a TGI greater than 100 µM.

Compound `CC(CC(=O)O)C(C(=O)O)C(=O)O` (stereo unspecified) showed a TGI greater than 100 µM.

`CC(=O)OC1O[C@@H](C(C)(C)O)CC[C@@H]1[C@H]1CC[C@@]2(C)C3=C(CC[C@]12C)[C@@]1(C)C[C@@H](OC(=O)CC(C)(O)CC(=O)O)[C@H](OC(C)=O)C(C)(C)C1CC3` (stereo partly specified) gave a TGI of 32.5 µM.

`O=C1NN=C2C=C(c3ccc(Cl)cc3)CC(c3cccc(Cl)c3)C12` (stereo unspecified) showed a TGI of 48.5 µM.

Another assay relates to SK-MEL-5 melanoma. Briefly: NCI anticancer screen, dose series, 48 h.
`COC(=O)C1(OC(=O)Sc2ccccc2)CCN(C)CC1` registered a TGI greater than 70.4 µM.

In turn, `CC(CC(=O)O)C(C(=O)O)C(=O)O` (stereo unspecified) displayed a TGI greater than 100 µM.

Consider `CC(=O)OC1O[C@@H](C(C)(C)O)CC[C@@H]1[C@H]1CC[C@@]2(C)C3=C(CC[C@]12C)[C@@]1(C)C[C@@H](OC(=O)CC(C)(O)CC(=O)O)[C@H](OC(C)=O)C(C)(C)C1CC3` (stereo partly specified), for which the TGI is 33.3 µM.

Compound `O=C1NN=C2C=C(c3ccc(Cl)cc3)CC(c3cccc(Cl)c3)C12` (stereo unspecified) yielded a TGI of 39.9 µM.

In the next assay the test system is A498 renal. Kind of assay: NCI anticancer screen, dose series, 48 h.
For `COC(=O)C1(OC(=O)Sc2ccccc2)CCN(C)CC1`, the TGI was determined as 45.8 µM.

For the compound `CC(CC(=O)O)C(C(=O)O)C(=O)O` (stereo unspecified), the TGI was greater than 100 µM.

As for `CC(=O)OC1O[C@@H](C(C)(C)O)CC[C@@H]1[C@H]1CC[C@@]2(C)C3=C(CC[C@]12C)[C@@]1(C)C[C@@H](OC(=O)CC(C)(O)CC(=O)O)[C@H](OC(C)=O)C(C)(C)C1CC3` (stereo partly specified), the TGI worked out at 33.8 µM.

A further assay has as its system SNB-75 CNS. Kind of assay: NCI anticancer screen, dose series, 48 h.
`COC(=O)C1(OC(=O)Sc2ccccc2)CCN(C)CC1` returned a TGI of 40.1 µM.

`CC(CC(=O)O)C(C(=O)O)C(=O)O` (stereo unspecified) came in with a TGI greater than 100 µM.

For another assay, the system named is MDA-N. Briefly: NCI anticancer screen, dose series, 48 h.
`COC(=O)C1(OC(=O)Sc2ccccc2)CCN(C)CC1` returned a TGI of 49.4 µM.

`CC(CC(=O)O)C(C(=O)O)C(=O)O` (stereo unspecified) came in with a TGI greater than 100 µM.

Consider `CC(=O)OC1O[C@@H](C(C)(C)O)CC[C@@H]1[C@H]1CC[C@@]2(C)C3=C(CC[C@]12C)[C@@]1(C)C[C@@H](OC(=O)CC(C)(O)CC(=O)O)[C@H](OC(C)=O)C(C)(C)C1CC3` (stereo partly specified), for which the TGI is 34.4 µM.

`O=C1NN=C2C=C(c3ccc(Cl)cc3)CC(c3cccc(Cl)c3)C12` (stereo unspecified) registered a TGI of 65.3 µM.

A further assay deals with HOP-92 NSCLC. Briefly: NCI anticancer screen, dose series, 48 h.
The compound `CC(CC(=O)O)C(C(=O)O)C(=O)O` (stereo unspecified) registered a TGI greater than 100 µM.

`CC(=O)OC1O[C@@H](C(C)(C)O)CC[C@@H]1[C@H]1CC[C@@]2(C)C3=C(CC[C@]12C)[C@@]1(C)C[C@@H](OC(=O)CC(C)(O)CC(=O)O)[C@H](OC(C)=O)C(C)(C)C1CC3` (stereo partly specified) showed a TGI of 30.8 µM.

For `O=C1NN=C2C=C(c3ccc(Cl)cc3)CC(c3cccc(Cl)c3)C12` (stereo unspecified), the TGI amounted to 50.9 µM.

The next assay deals with LOX IMVI melanoma. Briefly: NCI anticancer screen, dose series, 48 h.
With `COC(=O)C1(OC(=O)Sc2ccccc2)CCN(C)CC1`, the TGI was 28.4 µM.

Consider `CC(CC(=O)O)C(C(=O)O)C(=O)O` (stereo unspecified), for which the TGI is greater than 100 µM.

As for `CC(=O)OC1O[C@@H](C(C)(C)O)CC[C@@H]1[C@H]1CC[C@@]2(C)C3=C(CC[C@]12C)[C@@]1(C)C[C@@H](OC(=O)CC(C)(O)CC(=O)O)[C@H](OC(C)=O)C(C)(C)C1CC3` (stereo partly specified), the TGI is 32.6 µM.

Compound `O=C1NN=C2C=C(c3ccc(Cl)cc3)CC(c3cccc(Cl)c3)C12` (stereo unspecified) registered a TGI of 33.4 µM.

The next assay deals with UACC-257 melanoma. Kind of assay: NCI anticancer screen, dose series, 48 h.
Take `COC(=O)C1(OC(=O)Sc2ccccc2)CCN(C)CC1`: the TGI stood at 56.6 µM.

Consider `CC(CC(=O)O)C(C(=O)O)C(=O)O` (stereo unspecified), for which the TGI is greater than 100 µM.

As to `CC(=O)OC1O[C@@H](C(C)(C)O)CC[C@@H]1[C@H]1CC[C@@]2(C)C3=C(CC[C@]12C)[C@@]1(C)C[C@@H](OC(=O)CC(C)(O)CC(=O)O)[C@H](OC(C)=O)C(C)(C)C1CC3` (stereo partly specified), the TGI was 31.7 µM.

As for `O=C1NN=C2C=C(c3ccc(Cl)cc3)CC(c3cccc(Cl)c3)C12` (stereo unspecified), the TGI was 48.5 µM.

Another assay concerns EKVX NSCLC. Briefly: NCI anticancer screen, dose series, 48 h.
Compound `COC(=O)C1(OC(=O)Sc2ccccc2)CCN(C)CC1` came in with a TGI greater than 84.6 µM.

`CC(CC(=O)O)C(C(=O)O)C(=O)O` (stereo unspecified) came in with a TGI greater than 100 µM.

`CC(=O)OC1O[C@@H](C(C)(C)O)CC[C@@H]1[C@H]1CC[C@@]2(C)C3=C(CC[C@]12C)[C@@]1(C)C[C@@H](OC(=O)CC(C)(O)CC(=O)O)[C@H](OC(C)=O)C(C)(C)C1CC3` (stereo partly specified) yielded a TGI of 35.3 µM.

Compound `O=C1NN=C2C=C(c3ccc(Cl)cc3)CC(c3cccc(Cl)c3)C12` (stereo unspecified) had a TGI of 64.7 µM.

The test system of another assay is ACHN renal. Kind of assay: NCI anticancer screen, dose series, 48 h.
As to `COC(=O)C1(OC(=O)Sc2ccccc2)CCN(C)CC1`, the TGI was greater than 54.1 µM.

`CC(CC(=O)O)C(C(=O)O)C(=O)O` (stereo unspecified): the TGI is greater than 100 µM.

Compound `CC(=O)OC1O[C@@H](C(C)(C)O)CC[C@@H]1[C@H]1CC[C@@]2(C)C3=C(CC[C@]12C)[C@@]1(C)C[C@@H](OC(=O)CC(C)(O)CC(=O)O)[C@H](OC(C)=O)C(C)(C)C1CC3` (stereo partly specified) registered a TGI of 32.5 µM.

`O=C1NN=C2C=C(c3ccc(Cl)cc3)CC(c3cccc(Cl)c3)C12` (stereo unspecified) registered a TGI of 48.2 µM.

Another assay relates to NCI-H23 lung. Briefly: NCI anticancer screen, dose series, 48 h.
Consider `COC(=O)C1(OC(=O)Sc2ccccc2)CCN(C)CC1`, for which the TGI was found to be 50.2 µM.

With `CC(CC(=O)O)C(C(=O)O)C(=O)O` (stereo unspecified), the TGI is greater than 100 µM.

Take `CC(=O)OC1O[C@@H](C(C)(C)O)CC[C@@H]1[C@H]1CC[C@@]2(C)C3=C(CC[C@]12C)[C@@]1(C)C[C@@H](OC(=O)CC(C)(O)CC(=O)O)[C@H](OC(C)=O)C(C)(C)C1CC3` (stereo partly specified): the TGI was 36.8 µM.

Regarding `O=C1NN=C2C=C(c3ccc(Cl)cc3)CC(c3cccc(Cl)c3)C12` (stereo unspecified), the TGI is greater than 100 µM.

The next assay concerns U251 CNS. Briefly: NCI anticancer screen, dose series, 48 h.
In turn, `COC(=O)C1(OC(=O)Sc2ccccc2)CCN(C)CC1` returned a TGI of 40.6 µM.

In turn, `CC(CC(=O)O)C(C(=O)O)C(=O)O` (stereo unspecified) had a TGI greater than 100 µM.

`CC(=O)OC1O[C@@H](C(C)(C)O)CC[C@@H]1[C@H]1CC[C@@]2(C)C3=C(CC[C@]12C)[C@@]1(C)C[C@@H](OC(=O)CC(C)(O)CC(=O)O)[C@H](OC(C)=O)C(C)(C)C1CC3` (stereo partly specified) yielded a TGI of 31.4 µM.

On to `O=C1NN=C2C=C(c3ccc(Cl)cc3)CC(c3cccc(Cl)c3)C12` (stereo unspecified), for which the TGI turned out to be 39.9 µM.

Another assay has as its system MALME-3M melanoma. Kind of assay: NCI anticancer screen, dose series, 48 h.
Turning to `COC(=O)C1(OC(=O)Sc2ccccc2)CCN(C)CC1`, the TGI is greater than 100 µM.

Consider `CC(CC(=O)O)C(C(=O)O)C(=O)O` (stereo unspecified), for which the TGI is greater than 100 µM.

`CC(=O)OC1O[C@@H](C(C)(C)O)CC[C@@H]1[C@H]1CC[C@@]2(C)C3=C(CC[C@]12C)[C@@]1(C)C[C@@H](OC(=O)CC(C)(O)CC(=O)O)[C@H](OC(C)=O)C(C)(C)C1CC3` (stereo partly specified) came in with a TGI of 34.1 µM.

Compound `O=C1NN=C2C=C(c3ccc(Cl)cc3)CC(c3cccc(Cl)c3)C12` (stereo unspecified) yielded a TGI greater than 100 µM.

The test system of the next assay is OVCAR-3 ovarian. Kind of assay: NCI anticancer screen, dose series, 48 h.
Compound `COC(=O)C1(OC(=O)Sc2ccccc2)CCN(C)CC1` came in with a TGI greater than 45.3 µM.

In turn, `CC(CC(=O)O)C(C(=O)O)C(=O)O` (stereo unspecified) displayed a TGI greater than 100 µM.

For `CC(=O)OC1O[C@@H](C(C)(C)O)CC[C@@H]1[C@H]1CC[C@@]2(C)C3=C(CC[C@]12C)[C@@]1(C)C[C@@H](OC(=O)CC(C)(O)CC(=O)O)[C@H](OC(C)=O)C(C)(C)C1CC3` (stereo partly specified), the TGI worked out at 32.6 µM.

In turn, `O=C1NN=C2C=C(c3ccc(Cl)cc3)CC(c3cccc(Cl)c3)C12` (stereo unspecified) showed a TGI greater than 100 µM.

A further assay deals with SF-295 CNS. Briefly: NCI anticancer screen, dose series, 48 h.
For `COC(=O)C1(OC(=O)Sc2ccccc2)CCN(C)CC1`, the TGI was greater than 59.5 µM.

`CC(CC(=O)O)C(C(=O)O)C(=O)O` (stereo unspecified) yielded a TGI greater than 100 µM.
